Measured values reported in paper PMC11279465, “Dual Inhibitors of P-gp and Carbonic Anhydrase XII (hCA XII) against Tumor Multidrug Resistance with Piperazine Scaffold” (Molecules, 2024).

Experiments:
[1] = system: A549 cells; assay: Intrinsic cytotoxicity (MTT); format: cell-based, human; conditions: compound alone at 1 µM; parental A549; 48 h
Description: (§1) All compounds were preliminarily studied to evaluate their intrinsic cytotoxicity at different concentrations (from 10 nM to 50 µM) in the parental HT29 and A549 and the resistant HT29/DOX and A549/DOX cells using the MTT assay.
(§2) The intrinsic toxicity of the studied compounds was determined by an MTT assay. K562 and K562/DOX were exposed for 72 h with compounds at 1 and 3 µM concentrations while HT29, A549, HT29/DOX and A549/DOX cells were incubated for 48 h with compounds used at different concentrations (from 10 nM to 50 µM). The percentage of growth compared to the untreated control was transformed into histograms with the GraphPad Prism 5 program.

[2] = system: HT29 cells; assay: Intrinsic cytotoxicity (MTT); format: cell-based, human; conditions: compound alone at 1 µM; parental HT29; 48 h
Description: as §1, §2

[3] = system: HT29/DOX cells; assay: ROS measurement (DCFDA-AM); format: cell-based, human; conditions: 1 µM
Description: (§3) Selected compounds have been tested for their cytotoxic activity at 24 h on HT29/DOX and A549/DOX cells and on the parental HT29 and A549 cells by MTT assay. To evaluate the mechanisms involved in CS, reactive oxygen species (ROS) were measured using the fluorescent probe 5-(and-6)-chloromethyl-2′,7′-dichlorodihydro-fluorescein diacetate-acetoxymethyl ester (DCFDA-AM), as previously reported. The results were expressed as nmol/mg cellular proteins. The amount of TBARS, as an index of lipoperoxidation, was measured with the Lipid Peroxidation (4-HNE) Assay Kit (Abcam, Cambridge, UK) that evaluates the 4-hydroxy-nonenale, one of the TBARS Results were expressed as nmoles/mg mitochondrial protein.

[4] = system: A549/DOX cells; assay: ROS measurement (DCFDA-AM); format: cell-based, human; conditions: 1 µM
Description: as §3

[5] = system: HT29/DOX cells; assay: TBARS (lipid peroxidation, 4-HNE kit); format: cell-based, human; conditions: 1 µM
Description: as §3

[6] = system: A549/DOX cells; assay: TBARS (lipid peroxidation, 4-HNE kit); format: cell-based, human; conditions: 1 µM
Description: as §3

[7] = system: HT29/DOX cells; assay: Membrane fluidity; format: cell-based, human; conditions: 1 µM
Description: (§4) Membrane fluidity was measured fluorometrically using the Membrane Fluidity Kit, Abcam, according to the manufacturer’s instructions.

[8] = system: A549/DOX cells; assay: Membrane fluidity; format: cell-based, human; conditions: 1 µM
Description: as §4

[9] = system: K562/DOX cells; assay: Doxorubicin cytotoxicity enhancement assay (MTT); format: cell-based, human; conditions: 72 h
Method in brief: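 K562/DOX cells exposed 72 h to varying doxorubicin concentrations plus 1 or 3 µM test compound. Viability by MTT absorbance, expressed as percentage of untreated control cells.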

[10] = molecular target: T1, P-gp (Homo sapiens, UniProt P08183); assay: P-gp ATPase activity (HT29/DOX cells); format: biochemical; design: endogenous in cells; host or cells: HT29/DOX (A27) and A549/DOX (A28); conditions: 1 µM, compared with HT29
Description: (§5) Plasma-membrane vesicles enriched with P-gp were prepared by sequential centrifugation as detailed previously. The ATPase activity of immunopurified P-gp was evaluated spectrophotometrically by measuring the absorbance of the phosphate hydrolyzed from ATP at 620 nm, using a Synergy HT Multi-Detection Microplate Reader (Bio-Tek Instruments). The absorbance was converted into μmol hydrolyzed phosphate/min/mg proteins, according to the titration curve previously prepared.

[11] = molecular target: T2, hCA I (Homo sapiens, UniProt P00915); assay: CA inhibition, stopped-flow CO2 hydrase assay; format: biochemical; conditions: stopped-flow technique; incubation time 6 h; mean of 3 assays
T2 construct: made in house
Method in brief: (§6)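 Stopped-flow CO2 hydration used saturated CO2 solutions at 25 °C as substrate. Enzyme and inhibitor (10 μM stocks in DMSO-water, diluted down to 0.01 nM) were preincubated for 6 h at room temperature.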

[12] = molecular target: T3, hCA II (Homo sapiens, UniProt P00918); assay: CA inhibition, stopped-flow CO2 hydrase assay; format: biochemical; conditions: stopped-flow technique; incubation time 6 h; mean of 3 assays
T3 construct: made in house
Method in brief: as §6

[13] = molecular target: T4, hCA IX (Homo sapiens, UniProt Q16790); assay: CA inhibition, stopped-flow CO2 hydrase assay; format: biochemical; conditions: stopped-flow technique; incubation time 6 h; mean of 3 assays
T4 construct: made in house
Method in brief: as §6

[14] = molecular target: T5, hCA XII (Homo sapiens, UniProt O43570); assay: CA inhibition, stopped-flow CO2 hydrase assay; format: biochemical; conditions: stopped-flow technique; incubation time 6 h; mean of 3 assays
T5 construct: made in house
Method in brief: as §6

[15] = molecular target: T1, P-gp; assay: P-gp ATPase activity (A549/DOX cells); format: biochemical; design: endogenous in cells; host or cells: HT29/DOX (A27) and A549/DOX (A28); conditions: 1 µM, compared with A549
Description: as §5

T1 sequence (P08183 whole entry): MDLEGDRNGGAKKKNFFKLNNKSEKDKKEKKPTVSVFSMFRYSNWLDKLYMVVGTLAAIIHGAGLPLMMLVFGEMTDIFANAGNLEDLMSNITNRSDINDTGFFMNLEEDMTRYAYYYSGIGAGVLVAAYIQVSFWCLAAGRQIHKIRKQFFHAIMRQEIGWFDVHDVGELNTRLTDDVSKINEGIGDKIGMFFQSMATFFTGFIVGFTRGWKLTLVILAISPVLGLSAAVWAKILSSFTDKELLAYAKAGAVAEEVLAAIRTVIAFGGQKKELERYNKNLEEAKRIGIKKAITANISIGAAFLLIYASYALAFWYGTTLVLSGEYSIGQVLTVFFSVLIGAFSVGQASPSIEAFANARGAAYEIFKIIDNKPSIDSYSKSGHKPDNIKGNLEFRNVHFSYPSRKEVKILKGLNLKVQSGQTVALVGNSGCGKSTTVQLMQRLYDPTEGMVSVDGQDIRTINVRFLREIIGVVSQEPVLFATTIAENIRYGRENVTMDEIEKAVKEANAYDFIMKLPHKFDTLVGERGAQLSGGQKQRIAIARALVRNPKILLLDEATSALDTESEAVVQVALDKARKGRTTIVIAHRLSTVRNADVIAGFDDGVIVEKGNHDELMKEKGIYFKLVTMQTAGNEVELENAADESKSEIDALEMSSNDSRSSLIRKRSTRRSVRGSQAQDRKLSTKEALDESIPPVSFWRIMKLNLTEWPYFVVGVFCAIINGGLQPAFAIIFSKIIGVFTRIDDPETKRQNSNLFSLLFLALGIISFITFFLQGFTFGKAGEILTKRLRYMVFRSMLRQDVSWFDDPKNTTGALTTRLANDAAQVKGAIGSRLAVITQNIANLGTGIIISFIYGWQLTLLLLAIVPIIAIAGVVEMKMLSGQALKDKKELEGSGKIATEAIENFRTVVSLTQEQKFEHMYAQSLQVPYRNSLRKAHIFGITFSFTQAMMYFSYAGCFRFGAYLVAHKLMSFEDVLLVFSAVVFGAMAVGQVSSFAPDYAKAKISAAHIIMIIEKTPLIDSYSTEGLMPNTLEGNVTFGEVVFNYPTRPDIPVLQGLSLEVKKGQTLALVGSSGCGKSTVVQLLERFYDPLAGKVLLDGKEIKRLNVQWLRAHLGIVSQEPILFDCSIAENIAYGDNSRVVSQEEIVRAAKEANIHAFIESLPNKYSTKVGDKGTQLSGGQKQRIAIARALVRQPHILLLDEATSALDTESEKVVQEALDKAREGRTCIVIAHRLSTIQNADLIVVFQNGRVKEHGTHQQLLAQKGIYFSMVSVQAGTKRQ
T2 sequence (P00915 whole entry): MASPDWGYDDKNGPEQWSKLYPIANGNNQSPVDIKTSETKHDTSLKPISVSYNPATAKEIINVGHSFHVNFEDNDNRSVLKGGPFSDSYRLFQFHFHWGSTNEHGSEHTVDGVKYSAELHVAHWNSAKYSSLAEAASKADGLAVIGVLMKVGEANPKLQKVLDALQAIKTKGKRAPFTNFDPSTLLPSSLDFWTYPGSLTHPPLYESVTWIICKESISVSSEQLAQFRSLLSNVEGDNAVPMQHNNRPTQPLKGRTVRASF
T5 sequence (O43570 25-354): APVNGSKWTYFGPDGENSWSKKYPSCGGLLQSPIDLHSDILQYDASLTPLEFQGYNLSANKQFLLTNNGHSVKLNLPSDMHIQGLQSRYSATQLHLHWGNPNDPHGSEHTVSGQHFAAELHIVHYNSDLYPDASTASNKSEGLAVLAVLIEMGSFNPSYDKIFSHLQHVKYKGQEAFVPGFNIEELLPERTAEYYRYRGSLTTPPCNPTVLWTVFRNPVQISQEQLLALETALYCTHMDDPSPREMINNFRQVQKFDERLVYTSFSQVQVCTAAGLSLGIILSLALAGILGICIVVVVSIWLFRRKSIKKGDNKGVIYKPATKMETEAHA

COc1ccc(C(CCCN2CCN(CCCCOc3ccc4ccc(=O)oc4c3)CC2)c2ccc(OC)cc2)cc1 [Compound 27, 7-(4-(4-(4,4-Bis(4-methoxyphenyl)butyl)piperazin-1-yl)butoxy)-2H-chromen-2-one] was tested, and the toxicity [1] was no less than 35%, the toxicity [2] was no less than 35% and the “increase of ROS levels compared to the control” value (shortened to “increase of ROS levels”) [3] was 3–4 times. The “increase of ROS levels” value [4] was 7–8 times, the “increase of TBARS levels compared to the control” value (shortened to “increase of TBARS levels”) [5] was 2.6 times and the “increase of TBARS levels” value [6] was 4 times. The membrane fluidity [7] was “increased membrane fluidity”, the membrane fluidity [8] was “increased membrane fluidity” and the “RF (Reversal Fold: IC50 of doxorubicin alone / in presence of modulator)” value ([9]; compound at 1 µM) was 8.1. For the same compound, the P-gp catalytic activity [10] was “lowered the catalytic efficacy of P-gp in resistant cells to levels comparable to drug-sensitive HT29 and A549 cells”, the Ki [11] was greater than 10000 nM and the Ki [12] was greater than 10000 nM. For the same compound, the Ki [13] was 145 nM, the Ki [14] was 92.1 nM and the P-gp catalytic activity [15] was “lowered the catalytic efficacy of P-gp in resistant cells to levels comparable to drug-sensitive HT29 and A549 cells”.

COc1ccc(C(CCCN2CCN(CCCOc3ccc4oc(=O)ccc4c3)CC2)c2ccc(OC)cc2)cc1 [Compound 32, 6-(3-(4-(4,4-Bis(4-methoxyphenyl)butyl)piperazin-1-yl)propoxy)-2H-chromen-2-one] was tested, and the toxicity [1] was no less than 35%, the toxicity [2] was no less than 35% and the “increase of ROS levels” value [3] was 3–4 times. The “increase of ROS levels” value [4] was 7–8 times, the “increase of TBARS levels” value [5] was 2.6 times and the “increase of TBARS levels” value [6] was 4 times. The membrane fluidity [7] was “increased membrane fluidity”, the membrane fluidity [8] was “increased membrane fluidity” and the “RF (Reversal Fold: IC50 of doxorubicin alone / in presence of modulator)” value ([9]; compound at 1 µM) was 3.6. The “RF (Reversal Fold: IC50 of doxorubicin alone / in presence of modulator)” value ([9]; compound at 3 µM) was 7.9, the P-gp catalytic activity [10] was “lowered the catalytic efficacy of P-gp in resistant cells to levels comparable to drug-sensitive HT29 and A549 cells” and the Ki [11] was greater than 10000 nM. For the same compound, the Ki [12] was greater than 10000 nM, the Ki [13] was 89.6 nM and the Ki [14] was 71.5 nM. For the same compound, the P-gp catalytic activity [15] was “lowered the catalytic efficacy of P-gp in resistant cells to levels comparable to drug-sensitive HT29 and A549 cells”.
